Test results from PubChem BioAssay (NCI).
“And” between values parts separate entries of the source, which are not always exact repeats. Equal entries are not always repeated.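 Interpolation was linear, between the two tested concentrations surrounding the appropriate level; five concentrations were tested over 48 hours in 96-well plates. GI50 is the concentration that inhibits growth by half. Definition used: TGI = concentration required for complete inhibition of growth.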

Key:
Assay in all cases: NCI tumour cell line growth inhibition, 48 h
[1] = test system: HOP-92 NSCLC
[2] = test system: HS 578T breast
[3] = test system: MDA-MB-435
[4] = test system: NCI-H23 lung
[5] = test system: NCI-H460 lung
[6] = test system: NCI-H522 lung
[7] = test system: PC-3 prostate
[8] = test system: SK-MEL-5 melanoma
[9] = test system: SR leukemia
[10] = test system: SW-620 colon

| Compound | GI50 [1] | TGI [1] | GI50 [2] | TGI [2] | GI50 [3] | TGI [3] | GI50 [4] | TGI [4] | GI50 [5] | TGI [5] | GI50 [6] | TGI [6] | GI50 [7] | TGI [7] | GI50 [8] | TGI [8] | GI50 [9] | TGI [9] | GI50 [10] | TGI [10] |
| --- | --- | --- | --- | --- | --- | --- | --- | --- | --- | --- | --- | --- | --- | --- | --- | --- | --- | --- | --- | --- |
| OCCCCC#Cc1ccccc1C#Cc1ccc(C(F)(F)F)cc1 | 18 µM | 34.9 µM | 26.3 µM | 65.9 µM | 16.3 µM | 31.8 µM | 16.8 µM | 32.4 µM | 23.3 µM | 60.3 µM | 16.4 µM | 32 µM | 17.5 µM | 35 µM | 17.8 µM | 33.3 µM | 0.693 µM | 31.8 µM | 17 µM | 35.2 µM |
| Nc1ncnc2c1nc(Cl)n2C1OC(CO)C(O)C1O (centres undefined) | – | > 66.2 µM | – | > 100 µM | – | > 100 µM | – | > 100 µM | – | > 100 µM | – | > 95.3 µM | – | > 71.2 µM | – | > 42.2 µM | – | > 100 µM | – | > 100 µM |
| COc1cc(/C=C2\C(=O)N(C)c3ccccc32)cc(OC)c1OC | 15.9 µM | 70.6 µM | 27.4 µM | > 100 µM | 5.02 µM | 45.4 µM | 21.2 µM | 73.1 µM | 10.8 µM | 64.1 µM | 11.2 µM | 37.8 µM | 10.5 µM | > 100 µM | 10.1 µM | 27.8 µM | 6.26 µM | 39.7 µM | 13.4 µM | > 100 µM |
| COc1ccc(OCC(O)CN2CCN(c3ccc(Cl)cc3)CC2)cc1 (centres undefined) | 3.99 µM | > 100 µM | > 100 µM | > 100 µM | > 100 µM | > 100 µM | > 100 µM | > 100 µM | > 100 µM | > 100 µM | 69.3 µM | > 100 µM | > 100 µM | > 100 µM | – | – | > 100 µM | > 100 µM | > 100 µM | > 100 µM |
| COC(=O)[C@]1(C)CCC[C@]2(C)[C@@H]1CCC13C[C@@H](C=CO1)[C@@H](C)CC32O (some centres undefined) | 22 µM | > 100 µM | 20.7 µM | 76.5 µM | 23.9 µM | > 100 µM | 20.3 µM | > 100 µM | 43.8 µM | > 100 µM | > 100 µM | > 100 µM | 38 µM | > 100 µM | 34 µM | > 100 µM | 17.1 µM | > 100 µM | > 100 µM | > 100 µM |
| COc1ccc(/C=C/C(C)=N/OCC(=O)Nc2ccc(Cl)cc2)cc1 | 0.561 µM | 4.68 µM | 5.85 µM | 78.5 µM | 2.44 µM | 9.76 µM | 2.54 µM | 10.2 µM | 3.1 µM | 16.7 µM | 1.81 µM | 8.01 µM | 1.84 µM | 13.1 µM | 2.36 µM | 7.98 µM | 2.24 µM | 10.6 µM | 3.13 µM | 20.1 µM |
| Fc1ccc(-c2nn3c(COc4ccc(Cl)cc4)nnc3s2)cc1Oc1ccccc1 | 10.1 µM | 21.7 µM | 22.4 µM | 61.4 µM | 30.8 µM | > 71.1 µM | 20.4 µM | 40.2 µM | 23.9 µM | > 54.5 µM | 26.1 µM | > 66.8 µM | 0.0735 µM | 13.6 µM | 18.2 µM | 41.5 µM | > 100 µM | > 100 µM | 48.4 µM | > 100 µM |
| COc1cc(N(CCC#N)CCC#N)ccc1/C(N=Nc1ccc(C(=O)O)cc1)=N/NC(=O)c1cc(Br)ccc1O | > 150 µg/mL | > 150 µg/mL | 77.3 µg/mL | > 150 µg/mL | > 150 µg/mL | > 150 µg/mL | > 150 µg/mL | > 150 µg/mL | 40.9 µg/mL | > 150 µg/mL | 110 µg/mL | > 150 µg/mL | 81 µg/mL | > 150 µg/mL | 69.7 µg/mL | > 150 µg/mL | 85.4 µg/mL | > 150 µg/mL | > 150 µg/mL | > 150 µg/mL |
| C=C(Cl)[C@@](Cl)(CBr)CC[C@@H](Br)C(C)(C)Cl | – | 0.807 µM | 0.208 µM | 0.741 µM and 2.1 µM | 2.5 µM | 39.5 µM and 5.5 µM | 13.4 µM | 30.2 µM and 29.1 µM | – | – | – | 34.5 µM and 43.5 µM | 0.28 µM | 1.42 µM and 1.29 µM | 19.5 µM | > 100 µM and 21.3 µM | 23.1 µM | > 100 µM and 79.4 µM | 0.778 µM | – |
| COc1cccc(C2C(C#N)=C(N)Oc3cc4c(cc32)OCO4)c1 (centres undefined) | – | – | 0.0316 µM | 25.5 µM | 0.0162 µM | 0.0829 µM | 0.0694 µM | 15.8 µM | 0.0438 µM | 12.2 µM | 0.0185 µM | 0.0715 µM | 0.0534 µM | 39.5 µM | 0.0332 µM | 3.76 µM | 0.0291 µM | 27.8 µM | 0.0369 µM | > 63.2 µM |
| Cc1ccnc(Nc2ccc([N+](=O)[O-])c(NCCN3CCOCC3)n2)c1 | – | – | 0.0277 µM | 22.7 µM | 0.00233 µM | 0.0068 µM | 0.0352 µM and 0.0156 µM | 40.8 µM | 0.00431 µM | > 100 µM | 0.00209 µM | 0.00686 µM | 0.00603 µM | 39.5 µM | 0.00564 µM | 0.206 µM and 0.315 µM | 0.00376 µM | 63.5 µM | 0.00497 µM | > 100 µM |
